Laboratory results as given in patent US7652063B2, “10-hydroxy-11-dihydroprostaglandin analogs as selective EP4 agonists” (Allergan, Inc., priority 2004, dated 2010).
pEC50, pIC50: −log10 of the molar value.

Key:
HEP3D = biological target: T1, HEP3D (Homo sapiens, UniProt P43115); assay: Radioligand binding, hEP3D; details: competition vs 5 nM [3H]-PGE2
T1 sequence (P43115 1-374 isoform P43115-4): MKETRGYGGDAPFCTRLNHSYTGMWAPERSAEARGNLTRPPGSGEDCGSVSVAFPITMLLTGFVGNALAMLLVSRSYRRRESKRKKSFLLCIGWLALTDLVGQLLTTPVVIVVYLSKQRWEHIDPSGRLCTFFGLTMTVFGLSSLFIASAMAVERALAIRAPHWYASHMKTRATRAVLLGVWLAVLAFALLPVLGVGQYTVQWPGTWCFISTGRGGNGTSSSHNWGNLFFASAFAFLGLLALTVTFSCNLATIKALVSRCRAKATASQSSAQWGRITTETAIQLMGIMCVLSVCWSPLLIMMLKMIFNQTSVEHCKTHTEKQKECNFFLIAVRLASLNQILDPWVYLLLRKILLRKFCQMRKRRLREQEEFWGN

EP4 receptors = biological target: T2, EP4 receptors (Homo sapiens, UniProt P35408); assay: Radioligand binding, hEP4; details: HEK-293 membranes, competition vs 5 nM [3H]-PGE2
T2 construct: expressed in transfected cells; host or cells: HEK-293 (membrane fraction)
T2 sequence (P35408 whole entry): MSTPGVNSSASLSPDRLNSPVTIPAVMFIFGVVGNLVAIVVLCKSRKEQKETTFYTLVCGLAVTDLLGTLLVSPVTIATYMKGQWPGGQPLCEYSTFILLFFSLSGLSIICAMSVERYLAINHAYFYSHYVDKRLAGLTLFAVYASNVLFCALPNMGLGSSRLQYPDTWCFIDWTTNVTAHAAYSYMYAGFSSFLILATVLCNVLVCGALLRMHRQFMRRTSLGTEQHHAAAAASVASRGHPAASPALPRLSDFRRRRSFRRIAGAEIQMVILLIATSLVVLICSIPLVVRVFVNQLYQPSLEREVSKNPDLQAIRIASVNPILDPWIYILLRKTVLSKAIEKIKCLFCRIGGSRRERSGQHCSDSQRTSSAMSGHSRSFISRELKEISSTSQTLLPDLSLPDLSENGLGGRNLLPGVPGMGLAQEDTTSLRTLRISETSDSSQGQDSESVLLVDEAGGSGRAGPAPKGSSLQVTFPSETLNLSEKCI
Protocol: Cells Stably Expressing EP1, EP2, EP4 and FP Receptors
HEK-293 cells stably expressing the human or feline FP receptor, or EP1, EP2, or EP4 receptors were washed with TME buffer, scraped from the bottom of the flasks, and homogenized for 30 sec using a Brinkman PT 10/35 polytron. TME buffer was added to achieve a final 40 ml volume in the centrifuge tubes (the composition of TME is 100 mM TRIS base, 20 mM MgCl2, […]; 10N HCl is added to achieve a pH of 7.4).
The cell homogenate was centrifuged at 19000 r.p.m. for 20 min at 4° C. using a Beckman Ti-60 rotor. The resultant pellet was resuspended in TME buffer to give a final 1 mg/ml protein concentration, as determined by Biorad assay. Radioligand binding competition assays vs. [^3H-]17 -phenyl PGF2α (5 nM) were performed in a 100 μl volume for 60 min. Binding reactions were started by adding plasma membrane fraction. The reaction was terminated by the addition of 4 ml ice-cold TRIS-HCl buffer and rapid filtration through glass fiber GF/B filters using a Brandel cell harvester. The filters were washed 3 times with ice-cold buffer and oven dried for one hour.
[^3H-] PGE2 (specific activity 180 Ci mmol) was used as the radioligand for EP receptors. [^3H] […] 17-phenyl PGF2α and non-specific binding determined with 10^−5 M of unlabeled PGE2, or 17-phenyl PGF2α, according to receptor subtype studied.

hTP = biological target: T3, hTP (Homo sapiens, UniProt P21731); assay: FLIPR calcium signal, hTP; assay type: cell-based; details: HEK-293(EBNA) cells, read-out: FUNCTIONAL (nm) HTP
T3 construct: expressed in transfected cells; host or cells: HEK-293(EBNA)
T3 sequence (P21731 1-343): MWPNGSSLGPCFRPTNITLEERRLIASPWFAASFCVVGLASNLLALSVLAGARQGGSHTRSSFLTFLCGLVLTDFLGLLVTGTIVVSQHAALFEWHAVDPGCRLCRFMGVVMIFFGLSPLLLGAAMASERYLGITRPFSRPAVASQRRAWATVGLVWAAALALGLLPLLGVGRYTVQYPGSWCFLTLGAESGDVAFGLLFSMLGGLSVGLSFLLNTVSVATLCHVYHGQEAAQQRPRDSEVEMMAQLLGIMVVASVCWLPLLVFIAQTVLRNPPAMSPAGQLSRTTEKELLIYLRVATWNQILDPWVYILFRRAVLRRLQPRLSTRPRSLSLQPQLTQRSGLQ
Protocol: (§1) Methods for Flipr™ Studies
(§2) HEK-293(EBNA) cells, stably expressing one type or subtype of recombinant human prostaglandin receptors (prostaglandin receptors expressed: hDP/Gqs5; hEP1; hEP2/Gqs5; hEP3A/Gqi5; hEP4/Gqs5; hFP; hIP; hTP), were cultured in 100 mm culture dishes in high-glucose DMEM medium containing 10% fetal bovine serum, 2 mM 1-glutamine, 250 μg/ml geneticin (G418) and 200 μg/ml hygromycin B as selection markers, and 100 units/ml penicillin G, 100 μg/ml streptomycin and 0.25 μg/ml amphotericin B.
(§3) (b) Calcium Signal Studies on the Flipr™
(§4) Cells were seeded at a density of 5×10^4 cells per well in Biocoat® Poly-D-lysine-coated black-wall, clear-bottom 96-well plates (Becton-Dickinson) and allowed to attach overnight in an incubator at 37° C. Cells were then washed two times with HBSS-HEPES buffer (Hanks Balanced Salt Solution without bicarbonate and phenol red, 20 mM HEPES, pH 7.4) using a Denley Cellwash plate washer (Labsystems). […]
(§5) Cells were excited with an Argon laser at 488 nm, and emission was measured through a 510-570 nm bandwidth emission filter (FLIPR™, Molecular Devices, Sunnyvale, Calif.). […] The peak increase in fluorescence intensity was recorded for each well. […] The peak fluorescence change in each drug-containing well was then expressed relative to the controls. […]

hEP4/Gqs5 = biological target: T4, hEP4/Gqs5 (Homo sapiens, UniProt P35408); assay: FLIPR calcium signal, hEP4; assay type: cell-based; details: HEK-293(EBNA) cells, read-out: FUNCTIONAL (nm) HEP4
T4 construct: expressed in transfected cells; host or cells: HEK-293(EBNA)
T4 sequence (P35408 whole entry): as the sequence (P35408 whole entry) above
Protocol: as §1, §2, §3, §4, §5

SMILES	pIC50 (HEP3D)	pIC50 (EP4 receptors)	pEC50 (hTP)	pEC50 (hEP4/Gqs5)
O=C(O)CCC/C=C\C[C@H]1C(=O)C(O)C[C@@H]1/C=C/C(O)CCc1sc2ccccc2c1Cl (single isomer, unassigned) [Compound 9L]	5.06	6.70	< 5.00	7.11
O=C(O)CCC/C=C\C[C@H]1C(=O)C(O)C[C@@H]1/C=C/C(O)CCc1sc2ccccc2c1Cl (single isomer, unassigned) [Compound 9H]	< 5.00	6.77		7.28
